In patent US11896592B2, “Certain triazolopyridines and triazolopyrazines, compositions thereof and methods of use therefor” (Hutchison Medipharma Limited, priority 2009, dated 2024) one finds IC50 data, which are given here for 54 molecules.

pIC50: −log10 of the molar value. Read-outs that look alike come from different tables or passages of the source.

The target of this test is T1, Recombinant human Met (c-Met) (Homo sapiens, UniProt P08581).
T1 construct: purchased Invitrogen PV3143
Description: Inhibition of c-Met kinase activity using Transcreener FP assay. The format is biochemical. The conditions noted are these: Poly E4Y substrate, 28° C. 45 min.

[1] abbreviates: read-out: IC50, inhibition of c-Met kinase activity.
Where [2] appears, read: IC50, inhibition of c-Met kinase activity.

T1 sequence (P08581 956-1390 limits assumed): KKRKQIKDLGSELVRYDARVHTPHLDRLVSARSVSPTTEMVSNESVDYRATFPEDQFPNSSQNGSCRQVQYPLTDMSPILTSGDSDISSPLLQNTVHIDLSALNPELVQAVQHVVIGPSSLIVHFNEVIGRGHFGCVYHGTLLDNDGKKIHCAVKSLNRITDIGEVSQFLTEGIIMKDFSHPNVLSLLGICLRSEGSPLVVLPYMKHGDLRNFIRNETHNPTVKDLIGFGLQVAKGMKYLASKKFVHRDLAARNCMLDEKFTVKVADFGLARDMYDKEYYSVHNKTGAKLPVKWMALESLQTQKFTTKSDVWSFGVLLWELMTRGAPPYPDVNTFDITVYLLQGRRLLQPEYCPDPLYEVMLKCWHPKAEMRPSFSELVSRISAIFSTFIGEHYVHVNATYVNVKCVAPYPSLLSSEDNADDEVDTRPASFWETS

In the case of `Cc1cccc(Oc2cnc3nnn(Cc4ccc5ncccc5c4)c3n2)n1` [Compound 255], the negative-log IC50 (pIC50) under setting [1] is 7.00 to 9.00.
Same read-out and setting: to `c1ccc(Oc2cnc3nnn(Cc4ccc5ncccc5c4)c3n2)nc1` [Compound 257] belongs 6.00 to 7.00; to `c1cncc(Oc2cnc3nnn(Cc4ccc5ncccc5c4)c3n2)c1` [Compound 258], 7.00 to 9.00; to `Nc1cccc(Oc2cnc3nnn(Cc4ccc5ncccc5c4)c3n2)n1` [Compound 259], 7.00 to 9.00.
Still for that read-out and setting: under `CC(=O)Nc1cc(-c2cnn(C)c2)nc2c1nnn2Cc1ccc2ncccc2c1` [Compound 261, N-(5-(1-methyl-1H-pyrazol-4-yl)-3-(quinolin-6-ylmethyl)-3H-[1,2,3]triazolo[4,5-b]pyridin-7-yl)acetamide] stands 6.00 to 7.00.
Same read-out and setting: under `Cn1cc(-c2cc(Cl)c3nnn(Cc4ccc5ncccc5c4)c3n2)cn1` [Compound 263, 6-((7-Chloro-5-(1-methyl-1H-pyrazol-4-yl)-3H-[1,2,3]triazolo[4,5-b]pyridin-3-yl)methyl)quinoline] stands 6.00 to 7.00; under `COCCn1cc(-c2cnc3nnn(Cc4ccn5nccc5c4)c3n2)cn1` [Compound 268], 7.00 to 9.00.
As for `C[C@@H](c1ccc2nccn2c1)n1nnc2ncc(-c3cnn(C)c3)nc21` [Compound 270], the pIC50 under setting [2] was 7.00 to 9.00.
Still for that read-out and setting: to `C[C@H](c1ccc2nccn2c1)n1nnc2ncc(-c3cnn(C)c3)nc21` [Compound 271] belongs 7.00 to 9.00.
Consider `Cn1cc(-c2cnc3nnn(Cc4ccc5ncc(CO)n5c4)c3n2)cn1` [Compound 272], for which the pIC50 under setting [1] is 7.00 to 9.00.
On the same count and under the same terms, under `OCCn1cc(-c2ccc3nnn(Cc4ccc5nccn5n4)c3n2)cn1` [Compound 273] stands 6.00 to 7.00.
On the same count and under the same terms, to `c1cc(-c2cnc3nnn(Cc4ccc5nccn5c4)c3n2)ccn1` [Compound 275] belongs 7.00 to 9.00; to `COc1ccc(-c2cnc3nnn(Cc4ccc5nccn5c4)c3n2)cn1` [Compound 276], 7.00 to 9.00.
As to `CC(c1ccc2nccn2c1)n1nnc2ncc(-c3cnn(CC(F)(F)F)c3)nc21` (stereo not drawn) [Compound 277], the pIC50 under setting [1] was 7.00 to 9.00.
Same read-out and setting: under `Cn1cc(-c2cnc3nnn(Cc4ccc5ncc(Br)n5c4)c3n2)cn1` [Compound 278, 1-((3-Bromoimidazo[1,2-a]pyridin-6-yl)methyl)-6-(1-methyl-1H-pyrazol-4-yl)-1H-[1,2,3]triazolo[4,5-b]pyrazine] stands 7.00 to 9.00; under `OCCn1cc(-c2cnc3nnn(Cc4ccc5nccn5n4)c3n2)cn1` [Compound 281], 7.00 to 9.00; under `N#Cc1ccc(-c2cnc3nnn(Cc4cc5[nH]ncc5s4)c3n2)cn1` [Compound 282], 7.00 to 9.00.
Same read-out and setting: under `c1nn(C2CNC2)cc1-c1cnc2nnn(Cc3cc4[nH]ncc4s3)c2n1` [Compound 283] stands 7.00 to 9.00; under `Brc1cnc2nnn(Cc3ccc4ncnn4c3)c2n1` [Compound 284], 6.00 to 7.00; under `c1nc2ccc(Cn3nnc4ncc(-c5cnn(C6CNC6)c5)nc43)cn2n1` [Compound 286], 6.00 to 7.00.
Still for that read-out and setting: under `FC(F)(F)Cn1cc(-c2cnc3nnn(Cc4ccc5nccn5n4)c3n2)cn1` [Compound 287] stands 7.00 to 9.00.
With `OCCn1cc(-c2cnc3nnn(Cc4ccn5nccc5n4)c3n2)cn1` [Compound 288], under setting [1], the negative-log IC50 (pIC50) was 6.00 to 7.00.
Same read-out and setting: to `Cn1cc(-c2cnc3nnn(Cc4ccc5ncsc5n4)c3n2)cn1` [Compound 289] belongs 6.00 to 7.00.
The same measure, in the same setting: under `c1cn2cc(Cn3nnc4ncc(-c5cnn(C6CNC6)c5)nc43)ccc2n1` [Compound 290] stands 7.00 to 9.00.
On the same count and under the same terms, under `FC(F)(F)Cn1cc(-c2ccc3nnn(Cc4ccc5ncccc5n4)c3n2)cn1` [Compound 292] stands 6.00 to 7.00; under `FC(F)(F)Cn1cc(-c2cnc3nnn(Cc4ccn5nccc5n4)c3n2)cn1` [Compound 293], 6.00 to 7.00.
`Brc1cnc2nnn(Cc3cc4[nH]ncc4s3)c2n1` [Compound 295]: the pIC50 under setting [1] was 7.00 to 9.00.
Same read-out and setting: under `c1nn(C2COC2)cc1-c1cnc2nnn(Cc3cc4[nH]ncc4s3)c2n1` [Compound 296] stands 6.00 to 7.00; under `Cc1cnc2ccc(Cn3nnc4ncc(-c5cnn(C)c5)nc43)cn12` [Compound 298], 7.00 to 9.00; under `CC(c1cc2[nH]ncc2s1)n1nnc2ncc(-c3cnn(C)c3)nc21` (stereo not drawn) [Compound 299], 6.00 to 7.00.
The same measure, in the same setting: to `Cn1cc(-c2cnc3nnn(Cc4ccc5ncc(Cl)n5c4)c3n2)cn1` [Compound 300] belongs 7.00 to 9.00.
With `N#CCn1cc(-c2cnc3nnn(Cc4ccn5nccc5c4)c3n2)cn1` [Compound 301], the pIC50 under setting [1] was 7.00 to 9.00.
On the same count and under the same terms, to `N#Cc1ccc(-c2cnc3nnn(Cc4ccn5nccc5c4)c3n2)cn1` [Compound 302] belongs 7.00 to 9.00; to `Fc1ccc(-c2cnc3nnn(Cc4ccn5nccc5c4)c3n2)cc1` [Compound 303], 7.00 to 9.00; to `COC(=O)c1cnn2ccc(Cn3nnc4ncc(-c5cnn(CCO)c5)nc43)cc12` [Compound 304], 7.00 to 9.00.
Still for that read-out and setting: to `Cc1cnc2ccc(Cn3nnc4ncc(-c5cnn(CCO)c5)nc43)cn12` [Compound 305] belongs 7.00 to 9.00.
Still for that read-out and setting: to `OCCn1cc(-c2cnc3nnn(Cc4ccc5ncc(CO)n5c4)c3n2)cn1` [Compound 306] belongs 7.00 to 9.00; to `Cn1cc(-c2cnc3nnn(Cc4ccc5ncc(C=O)n5c4)c3n2)cn1` [Compound 307, 6-((6-(1-Methyl-1H-pyrazol-4-yl)-1H-[1,2,3]triazolo[4,5-b]pyrazin-1-yl)methyl)-imidazo[1,2-a]pyridine-3-carbaldehyde], 7.00 to 9.00; to `COCc1cnc2ccc(Cn3nnc4ncc(-c5cnn(C)c5)nc43)cn12` [Compound 308], 7.00 to 9.00.
Consider `COCc1cnc2ccc(Cn3nnc4ncc(-c5cnn(CCO)c5)nc43)cn12` [Compound 309], for which, under setting [1], the negative-log IC50 (pIC50) is 7.00 to 9.00.
Still for that read-out and setting: to `O=Cc1cnn2ccc(Cn3nnc4ncc(-c5cnn(CCO)c5)nc43)cc12` [Compound 312, 5-((6-(1-(2-Hydroxyethyl)-1H-pyrazol-4-yl)-1H-[1,2,3]triazolo[4,5-b]pyrazin-1-yl)methyl)pyrazolo[1,5-a]pyridine-3-carbaldehyde] belongs 7.00 to 9.00; to `OCCn1cc(-c2cnc3nnn(Cc4ccn5ncc(CO)c5c4)c3n2)cn1` [Compound 313], 7.00 to 9.00.
Take `OCCn1cc(-c2cnc3nnn(Cc4ccn5ncnc5c4)c3n2)cn1` [Compound 317]: under setting [1], the pIC50 is 6.00 to 7.00.
Take `CN(C)Cc1cnc2ccc(Cn3nnc4ncc(-c5cnn(C)c5)nc43)cn12` [Compound 319]: under setting [1], the pIC50 is 7.00 to 9.00.
On the same count and under the same terms, under `Cn1cc(-c2cnc3nnn(Cc4ccc5ncc(CN6CCOCC6)n5c4)c3n2)cn1` [Compound 320] stands 6.00 to 7.00; under `CCOCc1cnc2ccc(Cn3nnc4ncc(-c5cnn(C)c5)nc43)cn12` [Compound 321], 7.00 to 9.00; under `COCc1cnn2ccc(Cn3nnc4ncc(-c5cnn(CCO)c5)nc43)cc12` [Compound 322, 2-(4-(1-((3-(Methoxymethyl)pyrazolo[1,5-a]pyridin-5-yl)methyl)-1H-[1,2,3]triazolo[4,5-b]pyrazin-6-yl)-1H-pyrazol-1-yl)ethanol], 7.00 to 9.00.
Still for that read-out and setting: under `CC(C)OCc1cnc2ccc(Cn3nnc4ncc(-c5cnn(C)c5)nc43)cn12` [Compound 323] stands 7.00 to 9.00; under `COCc1cnc2ccc([C@H](C)n3nnc4ncc(-c5cnn(C)c5)nc43)cn12` [Compound 324], 7.00 to 9.00.
Still for that read-out and setting: to `COCc1cnc2ccc([C@@H](C)n3nnc4ncc(-c5cnn(C)c5)nc43)cn12` [Compound 325] belongs 7.00 to 9.00; to `CCC(c1ccc2nccn2c1)n1nnc2ncc(-c3cnn(C)c3)nc21` (stereo not drawn) [Compound 326], 7.00 to 9.00; to `CNCc1cnc2ccc(Cn3nnc4ncc(-c5cnn(C)c5)nc43)cn12` [Compound 327, N-methyl-1-(6-((6-(1-methyl-1H-pyrazol-4-yl)-1H-[1,2,3]triazolo[4,5-b]pyrazin-1-yl)methyl)imidazo[1,2-a]pyridin-3-yl)methanamine], 7.00 to 9.00.
As for `CC(c1ccc2nccn2c1)n1nnc2ncc(-c3cn[nH]c3)nc21` (stereo not drawn) [Compound 328], the pIC50 under setting [1] is 7.00 to 9.00.
On the same count and under the same terms, under `COc1ncc(-c2cnc3nnn(C(C)c4ccc5nccn5c4)c3n2)cc1NS(C)(=O)=O` (stereo not drawn) [Compound 329] stands 7.00 to 9.00.

Usually pIC50 stands for −log10 of the IC50, conventionally taken in molar units.
